According to PubChem BioAssay AID1259418 (Broad Institute, 2018):
“And” between values parts separate entries of the source, which are not always exact repeats. Identical values can stand only once. Results filed as inconclusive are left out. The source made the active and inactive calls.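 How the source made its calls: active means fitted half-maximal concentration of signal decrease at or below twice the sample's top tested concentration; inconclusive means flat curve between -70 and -30 percent, or poor fit; inactive means flat within 30 percent, signal rise, or potency above limit.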

target: T. gondii ME49Luc in IFN-y HeLa, luciferase, 72 h; experiment: inhibitors of Toxoplasma growth in IFN-γ-primed HeLa – cell-based, ME49Luc, luciferase, 72 h, dose response (AID 1259418)

| SMILES | AC50 |
| --- | --- |
| O=C(CC1Nc2c3ccccc3nc(=S)n2C1=O)NCCN1CCN(c2cccc(Cl)c2)CC1 (stereo not drawn) | 37.1 µM |
| O=C(c1ccccc1Cl)N1CCC2(CC1)Nc1cc(F)ccc1-n1cccc12 | > 39 µM (inactive) |
| Cc1ccccc1Cn1c(CN2CCC(C(=O)NCCCN3CCCC3=O)CC2)cc2ccccc21 | > 39 µM (inactive) |
| O=C(Cc1cccnc1)N1CC(=O)N2[C@H](CO)[C@@H](c3ccc(C#CC4CCCCC4)cc3)[C@H]2C1 | 16.4 µM |
| COc1cccc(-c2nc3c(s2)CN(S(=O)(=O)c2cc(C)ccc2C)CC3)c1 | 6.71 µM and 7.85 µM |
| COc1ccc(S(=O)(=O)N(C)C[C@H]2Oc3c(NC(=O)c4nc5ccccc5s4)cccc3C(=O)N([C@@H](C)CO)C[C@H]2C)cc1 | 21.8 µM |
| CCOc1ccccc1-c1nc(CN(c2ccccc2OC)S(=O)(=O)c2ccccc2C)c(C)o1 | 8.83 µM |
| COc1ccc(-c2nc(N3CCC4(CC3)OCCO4)c3ccccc3n2)cc1 | 20.1 µM |
| CCc1ccc(S(=O)(=O)N2CCC3(CC2)NCCN=C3NCc2cc(F)cc(F)c2)cc1 | 6.6 µM |
| Cc1cc(C(=O)N2CCC(c3cc4c(ncn4C)c(NCC4CC4)n3)CC2)ccc1Cl | 23.1 µM |
| CCC(C(=O)N1CCC2(CC1)Nc1ccc(Cl)cc1-n1cccc12)c1ccccc1 (stereo not drawn) | > 39 µM (inactive) |
| COc1cccc(-c2nc(C)c(-c3ccc(SCc4ccc(Cl)cc4)nn3)s2)c1 | 8.76 µM |
| CCCN(C/C=C/I)C1CCc2cccc(O)c2C1 (stereo not drawn) | 30.9 µM |
| O=S1(=O)c2ccccc2OCC2(CCN(Cc3ccc(F)cc3)CC2)CN1CC1CC1 | 26.6 µM |
| O=C(C1CCCCC1)N1C[C@@H]2N[C@H](C1)C2c1ccc(-c2ccccc2F)cc1 (stereo partly drawn) | 16.7 µM |
| CCOc1ccccc1C(=O)N1CCC2(CC1)Nc1ccc(Cl)cc1-n1cccc12 | 24.3 µM |
| CCN1CCN(Cc2ccc(Nc3nc(-c4ccc(OC)cc4)nc4ccccc34)cc2)CC1 | 11.3 µM and 12.5 µM |
| O=S(=O)(c1ccccc1)N(CC(F)(F)F)c1ccc(C(O)(C(F)(F)F)C(F)(F)F)cc1 | 19 µM |
| COc1cccc(C(=O)Nc2ccc3c(c2)C(=O)N(C)[C@@H]2CC[C@H](CC(=O)N[C@H](C)c4ccccc4)O[C@@H]2CO3)c1 | 19.4 µM |
| Cc1ccc(C)c(S(=O)(=O)N2CCC3(CC2)NCCN=C3NCc2ccccc2F)c1 | 28.5 µM |
| CCSc1ccc(-c2sc(-c3ccc(OC)cc3)nc2C)nn1 | > 39 µM (inactive) |
| CC(=O)NCc1nnn2c1CN(c1ncccn1)CCC2 | 10.9 µM |
| CN1C(=O)c2cc(NC(=O)Cc3cccs3)ccc2OC[C@H]2O[C@@H](CC(=O)NCc3ccc(-c4ccccc4)cc3)CC[C@@H]21 | 12.8 µM |
| CCCC#Cc1ccc([C@@H]2[C@H]3CN(C(=O)Nc4cccc(F)c4)CC(=O)N3[C@H]2CO)cc1 | 17.4 µM |

| SMILES | AC50 |
| --- | --- |
| Cc1cccc(CN2CCC3(CC2)N=C(c2cccc(C)c2)C(=O)N3)c1 | > 20 µM (inactive) |
| COc1cccc(N(Cc2nc(-c3ccccc3)oc2C)S(=O)(=O)c2ccccc2C)c1 | 5.46 µM |
| COc1ccccc1NC(=O)Nc1ccc(-c2nc(-c3ccc(C)cc3C)co2)cc1 | 31.9 µM |
| Cc1nc2ccccn2c1CN(C)Cc1cnn(-c2ccccc2)c1 | > 39 µM (inactive) |
| O=C1NCC(=O)N2CCN(C(=O)Nc3cc(Cl)cc(Cl)c3)CC12 (stereo not drawn) | 20.3 µM |
| COc1cccc(-c2nc(Cn3c(=O)c4c(C)cc(C)nc4n(-c4ccccc4)c3=O)c(C)o2)c1OC | > 39 µM (inactive) |
| CC(C)c1cc(C2CCCN2Cc2c[nH]c3ccccc23)on1 (stereo not drawn) | 7.79 µM and 14 µM |
| COc1cccc(CN2CCCCN3[C@@H](CO)[C@@H](c4ccc(-c5ccccc5OC)cc4)[C@@H]3C2)c1 | 16.4 µM and 13.4 µM |
| CCOc1ccc(-c2nc(CN(c3ccc(OC)cc3)S(=O)(=O)c3ccccc3C)c(C)o2)cc1 | 11.8 µM |
| COc1cc(Nc2nc(SCc3ccccc3F)nc3ccccc23)cc(OC)c1OC | 20.6 µM |
| COc1cccc(CNC2=NCCNC23CCN(S(=O)(=O)c2cc(C)c(C)cc2C)CC3)c1 | 9.29 µM |
| COc1cc(NC(=O)Nc2ccc(-c3nc(-c4cc(C)ccc4C)co3)cc2)cc(OC)c1OC | 14.5 µM |
| C[C@@H]1CN([C@@H](C)CO)C(=O)c2cccc(NC(=O)NC3CCCCC3)c2O[C@H]1CN(C)Cc1ccc(C(F)(F)F)cc1 | 16 µM |
| Cc1ccc(S(=O)(=O)N2CCC3(CC2)NCCN=C3NCc2ccc(C(F)(F)F)cc2)c(C)c1 | 9.08 µM |
| COc1cc(NC(=O)Nc2ccc(-c3nc(-c4cc(C)ccc4C)co3)cc2)cc(OC)c1 | 9.46 µM |
| O=C(O)CC1CCC(c2ccc(-c3ccc(Nc4ccc(C(F)(F)F)nc4)cn3)cc2)CC1 (stereo not drawn) | 19 µM |
| COc1ccc(-c2nc(NC3CCCC3)c3ccccc3n2)cc1 | 35.8 µM |
| COc1ccccc1N1CCN(C(=O)CC2Nc3c4ccccc4nc(=S)n3C2=O)CC1 (stereo not drawn) | 20.3 µM |
| CCCCNC(=O)CCC1N=C2c3ccccc3N=C(SCc3ccc(C)cc3C)N2C1=O (stereo not drawn) | 25.1 µM |
| Cc1ccc(Cn2c(=O)c3nn(C)cc3n3c(=O)n(Cc4nc(-c5ccccc5)oc4C)nc23)cc1 | 13.1 µM |
| O=C(Nc1cccc(F)c1)N1CCCCN2[C@H](CO)[C@@H](c3ccc(C#Cc4cccnc4)cc3)[C@H]2C1 | 19.1 µM |
| COC(=O)C[C@H]1CC[C@@H]2[C@@H](COc3ccc(NC(=O)Nc4cccc(C#N)c4)cc3C(=O)N2C)O1 | 27.5 µM and 18.5 µM |
| O=S(=O)(c1ccc2c(c1)CCCC2)N1CCC2(CC1)NCCN=C2NCc1ccccc1 | 12.9 µM |
| CC(C)(C)CC(C)(C)c1ccc(OCCOCC[N+](C)(C)Cc2ccccc2)cc1 | 15.6 µM |
